Experimental findings from article PMC9610897, “Cationic Perylene Antivirals with Aqueous Solubility for Studies In Vivo” (Pharmaceuticals, 2022) are described below.

By EC50 is commonly meant the concentration that produces a half-maximal response. One may read the CC50 as the concentration giving 50% cytotoxicity. By solubility is commonly meant how much of the substance goes into solution per volume. Read a low solubility as a poorly soluble substance.

In brackets after ≈: the same amount, converted by molar mass. Read-outs that look alike come from different tables or passages of the source.

The test system of one data set is SARS-CoV-2. The experiment in a line: SARS-CoV-2 cytopathic effect (CPE) inhibition test. It is filed as cell-based, strain PIK35. Particulars: for EC50: Severe acute respiratory syndrome coronavirus 2, 120 h, CPE inhibition in Vero cells, 5 days, M ± SD, read-out: Antiviral Activity, EC50 ± SD, SARS-CoV-2; for Activity against SARS-CoV-2 (in words): concentrations studied up to 100 μM. The source says:
(§1) The green monkey kidney (Vero) cell line originated from WHO Biologicals, Switzerland (10–87), and the Madin-Darby canine kidney (MDCK) cell line was obtained from the American Type Culture Collection (ATCC CCL-34).
(§2) Viruses and strains used in the present work were severe acute respiratory syndrome-related coronavirus 2 (SARS-CoV-2, strain PIK35, GISAID EPI_ISL_428852), Chikungunya virus (CHIKV, strain Nic, GenBank IDs MN271691-2) and influenza A virus (H1N1, strain A/PR/8/34, ATCC VR-95).
The procedure was described previously. In brief, two-fold dilutions of the compounds were prepared in Dulbecco MEM (Chumakov FSC R&D IBP RAS, Russia) and mixed 1:1 with a virus suspension containing 50–200 TCID50 and incubated for 1 h at 37 °C in a CO2 incubator. The final concentration series started from 100 μM. Then, compound-virus mixtures were added to confluent Vero cell monolayers in 2 replicates. After incubation at 37 °C in a CO2-incubator for 5 days, CPE signs (cell death) were assessed via microscope, and 50% effective concentration (EC50) (compound concentration required to decrease CPE by 50%) was calculated using the Karber method.
In general terms: Damage to the host cells serves as the signal in cytopathic effect assays.

The nature of data set [1]: Cell viability assay in Vero cells (resazurin). Particulars: green monkey, 5 d, read-out: Cytotoxicity, CC50 ± SD, Vero. In kind it is cell-based. The procedure: as §1
Two-fold dilutions of the compounds (starting from 100 μM) were prepared in DMEM (Chumakov FSC R&D IBP RAS, Russia) and added to confluent cell monolayers. After 5 days of incubation (37 °C, 5% CO2), the cultural supernatant was substituted with a resazurin solution (25 μg/mL), followed by 4 h incubation (37 °C, 5% CO2). Then, 20 µL of 10% SDS were added to stop the reaction. Fluorescence intensity was measured with Promega GloMax-Multi Detection System (Ex525/Em580–640). Cells treated with dilutions of the compounds and DMSO, but not resazurin, were used to subtract the background fluorescence. All experimental procedures were performed in two replicates. Fluorescence curves were analyzed with Microsoft Excel 2013. 50% Cytotoxic concentrations (CC50) were calculated.
A general note: Alamar Blue is a resazurin reagent that responds to reducing activity.

The test system of the next data set is CHIKV. The experiment in a line: CHIKV cytopathic effect (CPE) inhibition test. In kind it is cell-based, Chikungunya virus (CHIKV, strain Nic). The conditions noted are these: for EC50: Chikungunya virus, 120 h, read-out: Antiviral Activity, EC50 ± SD, CHIKV; for Activity against CHIKV (in words): concentrations studied up to 100 μM.
The nature of data set [2]: Cell viability assay in MDCK cells (MTT). Particulars: dog, read-out: Cytotoxicity, CC50 ± SD, MDCK. In kind it is cell-based, canine. The protocol: as §1
Compound solutions were prepared in DMSO (20 mg/mL), and then 2-fold dilutions in cultural medium were prepared starting from 1000 μg/mL. One-day MDCK cell monolayers (over 95% confluency) in 96-well plates ([…]) were washed twice with serum-free alpha-MEM (Thermo-Fisher Scientific, USA) and treated with 100 μL of compound dilutions in 2 replicates. The plates were then incubated for 24 h at 37 °C in a CO2 incubator. Cell viability was assessed using the tetrazolium test (MTT, ApplyChem). Optical density was measured on a Wallac 1420 Victor2 microplate reader (Perkin Elmer, Ramsey, MN, USA) at 535 nm, then CC50 values were calculated.

The next data set concerns IAV. The experiment in a line: IAV virus yield reduction assay. Particulars: Influenza A virus; virus yield reduction in MDCK cells, MOI 1, 24 h, M ± SD; read-out: Antiviral Activity, EC50 ± SD, IAV. In kind it is cell-based, influenza A virus (H1N1, strain A/PR/8/34).
Excerpt: as §1, §2
Compound solutions were prepared in DMSO (20 mg/mL). The compounds were weighed in 2 mg amounts and dissolved in 100 μL of DMSO. Then, a series of 3-fold dilutions was prepared, starting from 300 µg/mL, in a cultural medium. The MDCK cell monolayer was treated with compound dilutions and incubated for 1 h in a CO2 incubator at 37 °C. Untreated cells were used as negative control. Afterward, the virus was added (MOI 1), and cells were incubated for 24 h at 37 °C in a CO2 incubator. After incubation, the culture medium was collected, and viral yields were determined by titration. In brief, a series of 10-fold dilutions (10^−7–10^−1) of viral supernatants were prepared in a cultural medium and applied to daily MDCK cell monolayers. Infected cells were incubated for 72 h at 37 °C in a CO2 incubator. The presence of the virus in the culture supernatants was determined using the hemagglutination assay with a 1% suspension of chicken erythrocytes. Viral titer was calculated according to the Reed-and-Muench method and was expressed as 50% tissue infectious doses (TID50) per 100 μL of volume. Inhibition (%) was calculated by comparison with non-treated cells, and EC50 was calculated from inhibitory curves.

Data set [3] in a line: Solubility in water (photometry). In kind it is physicochemical. Particulars: for solubility at 30 min: thermodynamic from solid. The procedure:
The samples were dissolved in DMSO, diluted in series, and photometrically analyzed. The average molar absorption coefficient was calculated from the obtained optical densities of calibration solutions at the absorption maxima. Solubility values were determined as previously described by adding weighed amounts of compounds to distilled water followed by sonication (30 min), centrifugation (12,000 rpm, 10 min), and photometry.

Data set [4] has as its system influenza A/California/7/09/MA virus. It is filed as in vivo, BALB/c mice.
[5] abbreviates: distilled water, sonication, centrifugation, photometry.

Take `CC(C)[Si]1(C(C)C)OC[C@H]2O[C@@H](n3cc(C#Cc4ccc5c6cccc7cccc(c8cccc4c85)c76)c(=O)[nH]c3=O)[C@H](O)[C@@H]2O[Si](C(C)C)(C(C)C)O1` [Compound 5, 3′,5′-O-(Tetraisopropyldisiloxan-1,3-diyl)-5-(perylen-3-ylethynyl)uridine]: in the data set on SARS-CoV-2, the EC50 is > 100 µM and the “Activity against SARS-CoV-2 (in words)” value was “did not demonstrate any activity”. In addition, in data set [1], the CC50 at 5 days is > 100 µM. The EC50 in the data set with CHIKV (Vero) was determined as 1.17 ± 0.55 µM.
Turning to `c1cc2cccc3c4ccc(-c5cn(CCCN6CCOCC6)nn5)c5cccc(c(c1)c23)c54` [Compound 2b, 4-(3-(4-(Perylen-3-yl)-1H-1,2,3-triazol-1-yl)propyl)morpholine], the EC50 is > 100 µM with SARS-CoV-2, 62 ± 22 µM in the data set with IAV and > 100 µM in the data set on CHIKV (Vero). Besides, the “Activity against SARS-CoV-2 (in words)” value in the data set with SARS-CoV-2 was “did not demonstrate any activity”. The CC50 at 5 days in data set [1] is > 100 µM. The CC50 at 24 h in data set [2] is > 100 µM. Further, in the data set with CHIKV, the “Activity against CHIKV (in words)” value was “did not demonstrate any activity”.
For the compound `O=c1nc(NO)ccn1[C@@H]1O[C@H](CO)[C@@H](O)[C@H]1O` [NHC, N^4-hydroxycytidine, reference compound], the EC50 with SARS-CoV-2 amounted to 7.4 µM; with CHIKV (CPE inhibition in Vero cells, 5 days, M ± SD), 9.7 µM. In data set [1], the CC50 at 5 days was > 100 µM.
For `CC(C)[C@H](NC(=O)OC(C)(C)C)C(=O)O[C@@H]1[C@H](O)[C@@H](CO)O[C@H]1n1cc(C#Cc2ccc3c4cccc5cccc(c6cccc2c63)c54)c(=O)[nH]c1=O` [Compound 7, 2′-O-(N-Boc-L-valinyl)-5-(perylen-3-ylethynyl)uridine], the EC50 in the data set with SARS-CoV-2 is 0.075 ± 0.018 µM; with IAV it was 4.6 ± 1 µM; in the data set with CHIKV (Vero), < 0.016 µM. Moreover, in data set [1], the CC50 at 5 days was determined as 98 ± 17 µM. In data set [2], the CC50 at 24 h was 62 ± 24 µM.
With `CC(C)[C@H](NC(=O)OC(C)(C)C)C(=O)O[C@@H]1[C@@H]2O[Si](C(C)C)(C(C)C)O[Si](C(C)C)(C(C)C)OC[C@H]2O[C@H]1n1cc(C#Cc2ccc3c4cccc5cccc(c6cccc2c63)c54)c(=O)[nH]c1=O` [Compound 6, 2′-O-(N-Boc-L-valinyl)-3′,5′-O-(tetraisopropyldisiloxane-1,3-diyl)-5-(perylen-3-ylethynyl)uridine], the half-maximal effective concentration (EC50) in the data set with SARS-CoV-2 was > 100 µM; in the data set with IAV, 31 ± 10 µM; in the data set on CHIKV (Vero) it was > 100 µM. Moreover, in the data set on SARS-CoV-2, the “Activity against SARS-CoV-2 (in words)” value is given as “did not demonstrate any activity”. The CC50 at 5 days in data set [1] was > 100 µM. Besides, the CC50 at 24 h in data set [2] was > 100 µM. Besides, the “Activity against CHIKV (in words)” value in the data set with CHIKV is reported as “did not demonstrate any activity”.
On to `C[N+]1(CCCn2cc(-c3ccc4c5cccc6cccc(c7cccc3c74)c65)nn2)CCOCC1.[I-]` [Compound 3b, 4-Methyl-4-(3-(4-(Perylen-3-yl)-1H-1,2,3-triazol-1-yl)propyl)morpholin-4-ium iodide], for which the solubility at 30 min in data set [3] (setting [5]) worked out at 5 mM. Also, the EC50 was 9.2 ± 4.3 µM with SARS-CoV-2, > 100 µM in the data set on IAV and 10.7 ± 2.6 µM with CHIKV (Vero). The “Activity against SARS-CoV-2 (in words)” value in the data set with SARS-CoV-2 is “had activity”. Besides, the CC50 at 5 days in data set [1] is > 100 µM. In addition, the half-maximal cytotoxic concentration (CC50) at 24 h in data set [2] was > 100 µM. For the same compound, the “Activity against CHIKV (in words)” value with CHIKV is “had activity”.
Turning to `C[N+]1(CCn2cc(-c3ccc4c5cccc6cccc(c7cccc3c74)c65)nn2)CCOCC1.[I-]` [Compound 3a, 4-Methyl-4-(2-(4-(perylen-3-yl)-1H-1,2,3-triazol-1-yl)ethyl)morpholin-4-ium iodide], in data set [3] (setting [5]), the solubility at 30 min was 3.4 mM. The concentration for a half-maximal effect (EC50) in the data set on SARS-CoV-2 turned out to be 1.88 ± 0.88 µM; in the data set with IAV, 49 ± 19 µM; in the data set on CHIKV (Vero) it was 11.3 ± 9 µM. Moreover, the CC50 at 5 days in data set [1] was > 100 µM. Also, the CC50 at 24 h in data set [2] was > 100 µM.
For `O=c1[nH]c(=O)n([C@@H]2O[C@H](CO)[C@@H](O)[C@@H]2O)cc1C#Cc1ccc2c3cccc4cccc(c5cccc1c52)c43` [aUY11, 5-(Perylen-3-yl)ethynyl-arabino-uridine, reference compound], in data set [3], the “Solubility in water (in words)” value is recorded as “no solubility”. In addition, the “Solubility in Water” value in data set [3] (setting [5]) was “insoluble”.
For the compound `CC(C)[C@H](N)C(=O)O[C@@H]1[C@H](O)[C@@H](CO)O[C@H]1n1cc(C#Cc2ccc3c4cccc5cccc(c6cccc2c63)c54)c(=O)[nH]c1=O` [Compound 8, 2′-O-L-Valinyl-5-(perylen-3-ylethynyl)uridine], in data set [3], the “Solubility in water (in words)” value is given as “poor”. The same compound returned a solubility at 30 min in data set [3] (setting [5]) of 0.1 mM (≈ 61.8 µg/mL). In addition, the values for the concentration giving a half-maximal response (EC50) in the data set on SARS-CoV-2, in the data set on IAV and with CHIKV (Vero) were 1.28 ± 0.4 µM, 3.8 ± 1.3 µM and 0.55 ± 0.33 µM, respectively. Besides, the cytotoxic concentration (CC50) at 5 days in data set [1] was > 100 µM. Further, the CC50 at 24 h in data set [2] is > 100 µM.
As for `CCOC(=O)C1=C[C@@H](OC(CC)CC)[C@H](NC(C)=O)[C@@H](N)C1` [Tamiflu, Oseltamivir phosphate, reference compound], the CC50 at 24 h in data set [2] was > 100 µM. Moreover, the half-maximal effective concentration (EC50) in the data set on IAV was 0.02 µM. The “Average Life Expectancy (M ± SEM)” value in data set [4] (20 mg/kg intragastric, BALB/c mice) is 11.4 ± 1.1 days. Also, in data set [4] (20 mg/kg intragastric, […]), the “Protective Index (PI)” value was found to be 56%. Moreover, in data set [4] (mouse, in vivo), the “Mortality Rate” value came out at 40% and the “Reduction in body weight (maximum)” value came out at 24.0%.
Turning to `c1cc2cccc3c4ccc(-c5cn(CCN6CCOCC6)nn5)c5cccc(c(c1)c23)c54` [Compound 2a, 4-(2-(4-(Perylen-3-yl)-1H-1,2,3-triazol-1-yl)ethyl)morpholine], the values for the EC50 in the data set on SARS-CoV-2, with IAV and in the data set on CHIKV (Vero) were 11.3 ± 1.8 µM, 20.6 ± 8 µM and 0.47 ± 0.16 µM, respectively. Further, the half-maximal cytotoxic concentration (CC50) at 5 days in data set [1] was > 100 µM. In addition, in data set [2], the CC50 at 24 h was > 100 µM.
